Values quoted from earlier work as cited in patent publication US7696242B2, “Hepatitis C inhibitor peptide analogs” (Boehringer Ingelheim International GmbH, priority 2004, dated 2010).

System: hepatitis C virus
Conditions: two day clinical trial, patients infected with the hepatitis C virus

COc1ccc2c(O[C@@H]3C[C@H]4C(=O)N[C@]5(C(=O)O)C[C@H]5/C=C\CCCCC[C@H](NC(=O)OC5CCCC5)C(=O)N4C3)cc(-c3csc(NC(C)C)n3)nc2c1 [BILN 2061]
reduction of viral loads in patients: effective in rapidly reducing viral loads
